Laboratory results taken from PMC5986646.
Structures can show the parent of a compound that is named as a salt. Where two headings read alike, the source gives them in different places. Square brackets hold non-standard residues; d marks the D form. Peptide text beside a SMILES is read from it. dLac(3-vinyl) = C=CC[C@@H](O)C(=O)O; dHica = CC(C)C[C@@H](O)C(=O)O; NMeV = CN[C@H](C(=O)O)C(C)C; NMeA = CN[C@@H](C)C(=O)O; βAla = NCCC(=O)O

Key:
HCT116/wt cells [1] = assay: Cell viability assay (MTT, EZ4U); format: cell-based, human; conditions: mean (± SD) of at least three independent experiments in triplicates
HCT116/dtxA cells [2] = assay: Cell viability assay (MTT, EZ4U); format: cell-based, human; conditions: for IC50: n ≥ 3
HCT116/dtxE cells [3] = assay: Cell viability assay (MTT, EZ4U); format: cell-based, human; conditions: for IC50: HCT116/dtxE, about one year of selection, MTT, mean (± SD), n ≥ 3; for relative resistance: mean IC50 HCT116/dtxE divided by IC50 HCT116/wt
HCT116/dtxB cells = assay: Cell viability assay (MTT, EZ4U); format: cell-based, human; conditions: for IC50: n ≥ 3
parental HCT116 = assay: Cell viability, dtxA combined with mevalonate pathway inhibitors; format: cell-based, human; conditions: parental HCT116, inhibitor with dtxA, 72 h
HCT116/dtxA cells [4] = assay: Cell viability, dtxA combined with mevalonate pathway inhibitors, combination index; format: cell-based, human
MCF7 = assay: Cell viability, dtxA combined with mevalonate pathway inhibitors; format: cell-based, human; conditions: MCF7, intrinsically low sensitivity, inhibitor with dtxA, 72 h
BT20 = assay: as above; format: cell-based, human; conditions: BT20, intrinsically low sensitivity, inhibitor with dtxA, 72 h
HCT116/dtxA cells [5] = assay: Whole-cell patch clamp, ionophoric activity; format: cell-based, human; conditions: resistant HCT116/dtxA, 20 μM dtxA, whole-cell mode, membrane potential -60 mV, RT
Protocol: (§1) Ionophoric activity of dtxA, dtxB and dtxE was determined by patch clamp experiments, performed as previously described. Briefly, ionic currents were recorded in whole-cell mode at RT. Glass electrodes with a resistance less than 5 MΩ were pulled with a DMZ universal puller and filled with intracellular solution (120 mM CsF, 20 mM CsCl, 5 mM EGTA, 5 mM HEPES; pH 7.4). HCT116/wt or resistant cells were perfused with extracellular solution (140 mM NaCl, 4 mM KCl, 1.8 mM CaCl2, 0.75 mM MgCl2, 5 mM HEPES; pH 7.4) in a 1 mL chamber. After obtaining a whole-cell configuration, cells were allowed to equilibrate for 5 min before recording any currents and then pulsed to -60 mV for 10 sec pulses. Data were filtered at 5 kHz and digitized at 10 kHz by using digidata 1440A. Traces were averaged and subtracted from control recording, in the presence or absence of 20 μM dtxA, dtxB or dtxE, to observe ionophoric activity.

HCT116/wt cells [6] = assay: Whole-cell patch clamp, ionophoric activity; format: cell-based, human; conditions: parental HCT116/wt, 20 μM dtxA, whole-cell mode, membrane potential -60 mV, RT
Protocol: as §1

[7] = test system: resistant sublines (HCT116/dtxA, HCT116/dtxB, HCT116/dtxE); assay: JC-1 mitochondrial membrane depolarization; format: cell-based, human; conditions: each destruxin in its respective resistant subline, 48 h, JC-1, FACS
Protocol: (§2) Parental and dtx-resistant cells were seeded (1x10^5 cells/well in 6-well plates) and treated on the following day for 48 h with the indicated concentrations of dtxA, dtxB or dtxE. Next, the mitochondrial membrane potential (ΔΨm) was measured. In doing so, cells were detached by trypsinization, centrifuged with 300× g for 5 min at 4°C and stained with the fluorescent dye JC-1 (5,5’,6,6’-tetrachloro-1,1’,3’,3’-tetraethyl-benzimidazolylcarbocyanine iodide) for 10 min at 37°C. FACS analysis was performed according to the manufacturer’s instructions (Mitochondrial Membrane Potential detection Kit; Stratagene, La Jolla, CA, USA). To further compare apoptotic changes in the parental and resistant cells, Annexin V-APC/PI stainings were carried out.

HCT116/wt cells [8] = assay: JC-1 mitochondrial membrane depolarization; format: cell-based, human; conditions: parental cells, 48 h, JC-1, FACS
Protocol: as §2

HCT116/wt cells [9] = assay: Annexin-V/PI staining (apoptosis/necrosis); format: cell-based, human; conditions: 48 h, 5 μM dtxA, 2.5 μM dtxB, dtxE around the IC50 value, FACS
HeLa cell derivative = test system: HeLa cell derivative; set-up: method as in PMID 19517454; conditions: 18 months selection period of a HeLa cell derivative; cited from earlier work
HCT116/dtxE cells [10] = conditions: 10 μM verapamil or 1 μM cyclosporin A with increasing dtxE
[11] = HCT116/dtxA, about one year of selection, 72 h, MTT, mean (± SD)
[12] = HCT116/dtxB, about one year of selection, 72 h, MTT, mean (± SD)
[13] = HCT116/dtxA, inhibitor 24 h pretreatment, then dtxA 72 h, statins at concentrations above 2.5 μM, Chou-Talalay, CalcuSyn, CI < 1 synergism
[14] = mean IC50 HCT116/dtxA divided by IC50 HCT116/wt
[15] = mean IC50 HCT116/dtxB divided by IC50 HCT116/wt

SMILES: O=C1[O][Pt]2([NH][C@@H]3CCCC[C@H]3[NH]2)[O]C1=O [Oxaliplatin]
- IC50 (HCT116/wt cells [1]; 72 h): 800 nM
- IC50 (HCT116/dtxA cells [2]; [11]): 500 nM
- IC50 (HCT116/dtxE cells [3]; 72 h): 400 nM
- IC50 (HCT116/dtxB cells; [12]): 1000 nM

SMILES: NC(=S)N/N=C/c1ncccc1N [Triapin]
- IC50 (HCT116/wt cells [1]; 72 h): 800 nM
- IC50 (HCT116/dtxA cells [2]; [11]): 600 nM
- IC50 (HCT116/dtxE cells [3]; 72 h): 800 nM
- IC50 (HCT116/dtxB cells; [12]): 800 nM

SMILES: CC[C@@]1(O)C(=O)OCc2c1cc1n(c2=O)Cc2cc3c(CN(C)C)c(O)ccc3nc2-1 [Topotecan]
- IC50 (HCT116/wt cells [1]; Homo sapiens, HCT-116, 72 h): 27.4 nM
- IC50 (HCT116/dtxA cells [2]; Homo sapiens, HCT-116, HCT116/dtxA, about one year of selection, 72 h, MTT, mean (± SD)): 26 nM
- IC50 (HCT116/dtxE cells [3]; Homo sapiens, HCT-116, 72 h): 25 nM
- IC50 (HCT116/dtxB cells; Homo sapiens, HCT-116, HCT116/dtxB, about one year of selection, 72 h, MTT, mean (± SD)): 8.2 nM

SMILES: Nc1ccn([C@@H]2O[C@H](CO)[C@@H](O)C2(F)F)c(=O)n1 [Gemcitabin]
- IC50 (HCT116/wt cells [1]; 72 h): 400 nM
- IC50 (HCT116/dtxA cells [2]; [11]): 400 nM
- IC50 (HCT116/dtxE cells [3]; 72 h): 300 nM
- IC50 (HCT116/dtxB cells; [12]): 400 nM

SMILES: CC[C@H](C)C(=O)O[C@H]1C[C@@H](C)C=C2C=C[C@H](C)[C@H](CC[C@@H]3C[C@@H](O)CC(=O)O3)[C@H]21 [lovastatin, lovastatin (Mevinolin)]
- effect on cytotoxic activity of dtxA (parental HCT116): augmented
- combination index (CI) in combination with dtxA (HCT116/dtxA cells [4]; [13]): smaller than 1

SMILES: O=P(O)(O)C(O)(Cn1ccnc1)P(=O)(O)O [zoledronic acid, zoledronic acid monohydrate]
- effect on cytotoxic activity of dtxA (parental HCT116): augmented
- effect on cytotoxic activity of dtxA (MCF7): augmented
- combination index (CI) in combination with dtxA (HCT116/dtxA cells [4]): smaller than 1
- effect on cytotoxic activity of dtxA (BT20): augmented

SMILES: CC(C)n1c(/C=C/C(O)CC(O)CC(=O)O)c(-c2ccc(F)cc2)c2ccccc21 (stereo not drawn) [fluvastatin, fluvastatin sodium salt hydrate]
- effect on cytotoxic activity of dtxA (parental HCT116): augmented
- effect on cytotoxic activity of dtxA (MCF7): augmented
- combination index (CI) in combination with dtxA (HCT116/dtxA cells [4]; [13]): smaller than 1
- effect on cytotoxic activity of dtxA (BT20): augmented

SMILES: C=CC[C@H]1OC(=O)CCNC(=O)[C@H](C)N(C)C(=O)[C@H](C(C)C)N(C)C(=O)[C@H]([C@@H](C)CC)NC(=O)[C@@H]2CCCN2C1=O [dtxA, destruxin A] (cyclo([dLac(3-vinyl)]PI[NMeV][NMeA][βAla]))
- mean total current (pore forming ability) (HCT116/dtxA cells [5]): -0.2 pA/ms
- mean total current (pore forming ability) (HCT116/wt cells [6]): -0.7 pA/ms
- mitochondrial membrane depolarization [7]: no significant increase
- mitochondrial membrane depolarization (HCT116/wt cells [8]): only observed in parental cells
- IC50 (HCT116/dtxA cells [2]; HCT116/dtxA (unsel.), removed from drug selection for one month, 72 h, mean): > 100000 nM
- relative resistance (HCT116/dtxA cells [2]; HCT116/dtxA vs HCT116/wt, month 6 after selection start): 3.5 -fold
- relative resistance (HCT116/dtxA cells [2]; HCT116/dtxA vs HCT116/wt, month 8 after selection start): > 20 -fold
- IC50 (HCT116/dtxA cells [2]; [11]): > 100000 nM
- relative resistance (HCT116/dtxA cells [2]; [14]): >28.6 -fold
- percentages of early and/or late apoptotic cells (HCT116/wt cells [9]): markedly and significantly increased
- relative resistance (HCT116/dtxE cells [3]): 0.3 -fold
- relative resistance (HCT116/dtxB cells; [15]): 21.8 -fold

SMILES: CC(C)[C@H]1OC(=O)[C@H](Cc2ccccc2)N(C)C(=O)[C@@H](C(C)C)OC(=O)[C@H](Cc2ccccc2)N(C)C(=O)[C@@H](C(C)C)OC(=O)[C@H](Cc2ccccc2)N(C)C1=O [Beauvericin]
- resistance obtained (HeLa cell derivative): no resistance

SMILES: CC[C@]1(O)C[C@H]2CN(CCc3c([nH]c4ccccc34)[C@@](C(=O)OC)(c3cc4c(cc3OC)N(C=O)[C@H]3[C@@](O)(C(=O)OC)[C@H](OC(C)=O)[C@]5(CC)C=CCN6CC[C@]43[C@@H]65)C2)C1 [vincristine]
- cytotoxic activity compared to parental cells (reduction) (HCT116/dtxA cells [2]; HCT116/dtxA vs HCT116/wt, 72 h): absent
- cytotoxic activity compared to parental cells (HCT116/dtxE cells [3]; HCT116/dtxE vs HCT116/wt, 72 h): significantly reduced cytotoxic activity
- cytotoxic activity compared to parental cells (reduction) (HCT116/dtxB cells; HCT116/dtxB vs HCT116/wt, 72 h): very weak

SMILES: CC[C@H](C)[C@@H]1NC(=O)[C@@H]2CCCN2C(=O)[C@@H](CC(C)C)OC(=O)CCNC(=O)[C@H](C)N(C)C(=O)[C@H](C(C)C)N(C)C1=O [dtxB, destruxin B] (cyclo([dHica]PI[NMeV][NMeA][βAla]))
- mitochondrial membrane depolarization [7]: no significant increase
- mitochondrial membrane depolarization (HCT116/wt cells [8]): only observed in parental cells
- relative resistance (HCT116/dtxA cells [2]; [14]): 18.2 -fold
- percentages of early and/or late apoptotic cells (HCT116/wt cells [9]): markedly and significantly increased
- relative resistance (HCT116/dtxE cells [3]): 0.3 -fold
- IC50 (HCT116/dtxB cells; HCT116/dtxB (unsel.), removed from drug selection for one month, 72 h, mean): > 100000 nM
- relative resistance (HCT116/dtxB cells; HCT116/dtxB vs HCT116/wt, month 4 after selection start): 4.4 -fold
- relative resistance (HCT116/dtxB cells; HCT116/dtxB vs HCT116/wt, month 6 after selection start): 4.2 -fold
- relative resistance (HCT116/dtxB cells; HCT116/dtxB vs HCT116/wt, month 8 after selection start): > 25 -fold
- relative resistance (HCT116/dtxB cells; HCT116/dtxB vs HCT116/wt, month 12 after selection start): > 40 -fold
- IC50 (HCT116/dtxB cells; [12]): > 100000 nM
- relative resistance (HCT116/dtxB cells; [15]): >40 -fold

SMILES: COc1ccc(CCN(C)CCCC(C#N)(c2ccc(OC)c(OC)c2)C(C)C)cc1OC (stereo not drawn) [verapamil]
- sensitivity of HCT116/dtxE cells towards dtxE on co-incubation (HCT116/dtxE cells [10]): partly restored

SMILES: N.N.[Cl][Pt][Cl] [Cisplatin]
- IC50 (HCT116/wt cells [1]; 72 h): 4000 nM
- IC50 (HCT116/dtxA cells [2]; [11]): 1900 nM
- IC50 (HCT116/dtxE cells [3]; 72 h): 4400 nM
- IC50 (HCT116/dtxB cells; [12]): 2200 nM

SMILES: O=c1[nH]cc(F)c(=O)[nH]1 [5-FU]
- IC50 (HCT116/wt cells [1]; 72 h): 52000 nM
- IC50 (HCT116/dtxA cells [2]; [11]): 36400 nM
- IC50 (HCT116/dtxE cells [3]; 72 h): 34700 nM
- IC50 (HCT116/dtxB cells; [12]): 38900 nM
